Like-named read-outs stand apart in the source and are kept apart here.
Tests used:
serum cholesterol = assay: Serum cholesterol of male CF1 mice (Liebermann-Burchard reaction); format: in vivo; settings: Mus musculus, ip, Table 3, mice
Description: (§1) For hypolipidemic activity, the compounds were tested at 20 mg/kg/day administered I.P. to male CF1 mice (~30 g). On days 9 and 16 blood was collected by tail-vein bleeding. Serum cholesterol was determined by the Liebermann-Burchard reaction. Serum triglyceride levels were determined using the Hycel commercial kits on a separate group of mice, which were bled on day 14.

serum triglyceride = assay: Serum triglyceride levels of male mice (Hycel commercial kits); format: in vivo, male CF1 mice; settings: Mus musculus, ip, 336 h; Table 3; mice, N = 6; control 138 mg %; read-out: serum triglycerides
Description: as §1

Acetyl-CoA Synthetase = molecular target: T1, Acetyl-CoA Synthetase (Mus musculus, UniProt Q9QXG4); assay: In vitro acetyl coenzyme A synthetase activity (method of Goodridge); format: biochemical, mice; settings: Table 3, N = 6, control 10.8 mg/g wet tissue
T1 construct: gm wet tissue/30 min; from tissue

[1] = 216 h, N = 6, 9th day, control 115 mg %, read-out: serum cholesterol, 9th day
[2] = 384 h, N = 6, 16th day, control 118 mg %, read-out: serum cholesterol, 16th day

T1 sequence (Q9QXG4 whole entry): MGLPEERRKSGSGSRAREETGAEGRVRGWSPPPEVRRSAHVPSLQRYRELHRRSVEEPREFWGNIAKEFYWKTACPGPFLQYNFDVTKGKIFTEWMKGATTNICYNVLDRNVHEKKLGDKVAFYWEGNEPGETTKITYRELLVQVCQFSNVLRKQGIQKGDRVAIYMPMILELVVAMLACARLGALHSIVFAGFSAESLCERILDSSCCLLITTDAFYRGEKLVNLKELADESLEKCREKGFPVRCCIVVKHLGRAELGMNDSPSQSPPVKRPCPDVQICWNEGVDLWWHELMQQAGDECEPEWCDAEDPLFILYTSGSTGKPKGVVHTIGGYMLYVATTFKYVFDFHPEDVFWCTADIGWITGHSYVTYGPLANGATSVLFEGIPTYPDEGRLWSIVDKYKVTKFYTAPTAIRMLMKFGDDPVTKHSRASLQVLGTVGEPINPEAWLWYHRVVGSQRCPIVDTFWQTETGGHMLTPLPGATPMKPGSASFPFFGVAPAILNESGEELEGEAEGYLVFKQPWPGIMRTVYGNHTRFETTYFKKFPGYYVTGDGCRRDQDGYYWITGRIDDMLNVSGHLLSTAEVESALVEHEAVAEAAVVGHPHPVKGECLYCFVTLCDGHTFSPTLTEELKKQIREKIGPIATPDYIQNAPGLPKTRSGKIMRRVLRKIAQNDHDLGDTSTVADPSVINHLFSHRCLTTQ

Structure (SMILES) | response vs control in vivo at 20 mg/kg/day (serum cholesterol; [1]) [%] | response vs control in vivo at 20 mg/kg/day (serum cholesterol; [2]) [%] | response vs control in vivo at 20 mg/kg/day (serum triglyceride) [%] | in vitro AcCoA synthetase (Acetyl-CoA Synthetase) [% Control]
CC(=O)CCCCCN1C(=O)c2ccccc2C1=O [1-N--phthalimidoheptan-6-one] | 71 ± 6 | 75 ± 12 | 88 ± 5 | 85 ± 3
CC(=O)CCCCN1C(=O)c2ccccc2C1=O [1-N--phthalimidohexan-5-one] | 65 ± 9 | 65 ± 7 | 77 ± 5 | 68 ± 6
CC(=O)CCCN1C(=O)c2ccccc2C1=O [1-N--phthalimidopentan-4-one] | 71 ± 6 | 63 ± 5 | 59 ± 13 | 62 ± 3
O=C(O)CN1C(=O)c2ccccc2C1=O [2-N--phthalimidoacetic acid] | 76 ± 7 | 68 ± 7 | 72 ± 9 | 72 ± 12
O=C(O)CCCN1C(=O)c2ccccc2C1=O [4-N--phthalimidobutyric acid] | 80 ± 7 | 68 ± 6 | 59 ± 14 | 64 ± 12
O=C(O)CCCCN1C(=O)c2ccccc2C1=O [5-N--phthalimidovaleric] | 83 ± 9 | 77 ± 4 | 54 ± 5 | 76 ± 8
O=C(O)CCCCCN1C(=O)c2ccccc2C1=O [6-N--phthalimidocaproic acid] | 81 ± 6 | 67 ± 3 | 51 ± 12 | 59 ± 9
CCN1C(=O)c2ccccc2C1=O [N--ethylphthalimide] | 83 ± 4 | 76 ± 2 | 87 ± 5 | 82 ± 5
CN1C(=O)c2ccccc2C1=O [N--methylphthalimide] | 74 ± 4 | 74 ± 8 | 68 ± 8 | 66 ± 12
CCCCCCCN1C(=O)c2ccccc2C1=O [N--n-heptylphthalimide] | 99 ± 7 | 72 ± 4 | 84 ± 6 | 71 ± 5
CCCCCCN1C(=O)c2ccccc2C1=O [N--n-hexylphthalimide] | 96 ± 5 | 66 ± 4 | 84 ± 8 | 71 ± 12
CCCCCCCCN1C(=O)c2ccccc2C1=O [N--n-octylphthalimide] | 101 ± 7 | 82 ± 3 | 77 ± 4 | 76 ± 7
CCCCCN1C(=O)c2ccccc2C1=O [N--n-pentylphthalimide] | 76 ± 5 | 58 ± 3 | 75 ± 16 | 68 ± 6
CCCN1C(=O)c2ccccc2C1=O [N--n-propylphthalimide] | 96 ± 4 | 74 ± 5 | 81 ± 9 | 67 ± 3
CC(=O)OCCCCN1C(=O)c2ccccc2C1=O [N--phthalimidobutan-1-ol acetate] | 93 ± 9 | 66 ± 5 | 88 ± 7 | 83 ± 2
CC(=O)OCCN1C(=O)c2ccccc2C1=O [N--phthalimidoethyl acetate] | 93 ± 13 | 95 ± 1 | 82 ± 7 | 81 ± 6
CC(=O)OCN1C(=O)c2ccccc2C1=O [N--phthalimidomethyl acetate] | 61 ± 9 | 62 ± 4 | 57 ± 25 | 62 ± 10
CC(=O)OCCCN1C(=O)c2ccccc2C1=O [N--phthalimidopropan-1-ol acetate] | 102 ± 4 | 66 ± 2 | 89 ± 9 | 84 ± 2
O=C1NC(=O)c2ccccc21.[K] [potassium phthalimide] | 63 ± 6 | 78 ± 3 | 88 ± 4 | 78 ± 6

Reference: patent US4395417A, “Antihyperlipidemic compositions” (Research Corporation, priority 1980, dated 1983)
